{"source": "patent US11654110B2", "about": "“Composition and methods for the treatment of peripheral nerve injury” (UNIVERSITY OF ROCHESTER, priority 2013, dated 2023)", "key": {"crushed sciatic nerve [1]": {"tested_on": "crushed sciatic nerve", "experiment": "Sciatic nerve crush injury, sciatic function index (SFI) by walking track analysis", "format": "in vivo, mice", "method": "There are also possible effects of the 4-AP on nerve injuries suffered more acutely. Acute nerve injury is both common and difficult to treat. One type of acute peripheral nerve injury with a murine model available for study is the sciatic nerve crush injury model in mice and rats. In this model, the nerve is crushed with a variable amount of force which creates a measurable functional deficit in gait. This deficit is measured using a sciatic function index which is an accepted and validated measure of the functional effects of the injury.\n(§1) Mouse Model of Peripheral Nerve Injury. All procedures were approved by the University of Rochester Committee on Animal Resources. Female 10-week-old C57BL6 mice were performed sciatic nerve crush injury on the left hindlimb and the sham-surgery on the other one. All extensive surgery procedures were as described previously (Elfar et al., The Journal of Bone and Joint Surgery, 90: 1644-1653 (2008)). rhEPO was administered immediately at a dose of 5000 U/kg (Juul, Acta Paediatrica 91:36-42 (2002), Bianchi et al., PNAS 101:823-828 (2004), and Elfar et al., The Journal of Bone and Joint Surgery, 90:1644-1653 (2008)).\nSciatic Function Index (SFI) Determined by Walking Track Analysis. The assessment of motor function recovery was performed by calculating the sciatic function index (SFI). Walking track analysis was performed according to a published model that quantifies sciatic nerve function performance (de Medinaceli et al., Exp. Neurol. 77:634-643 (1982)). The operating procedure is extensively described previously (Elfar et al., The Journal of Bone and Joint Surgery, 90:1644-1653 (2008)). In brief, individual mouse footprints were obtained by painting each foot and walked down the 50 cm path in a narrow corridor lined with paper. Gaits were measured from the resulting footprints to get (1) toe spread (TS) (first through fifth toes), (2) print length (PL), and (3) intermediate toe spread (ITS) (second, third, and fourth toes) of both limbs (Gladman et al., The Journal of Neuroscience, 32:563-571 (2012)). All three measurements from the three most clearly inked foot prints per run were taken from the normal (N) and experimental (E) sides, and the SFI were calculated using the following formula: SFI=−38.3((EPL−NPL)/NPL)+109.5((ETS−NTS)/NTS)+13.3((EIT−NIT)/NIT)−8.8 where E is the injured limb and N is the control limb."}, "crushed sciatic nerve [2]": {"tested_on": "crushed sciatic nerve", "experiment": "Immunofluorescent staining of myelinated (P0+) and total (neurofilament+) axons in crushed sciatic nerve", "format": "in vivo, mice", "details": "systemic EPO directly after crush; 7 days post-injury", "source_text": "FIGS. 14A, 14B, and 14C are images and a graph showing EPO supported preservation of myelin within crushed nerves. FIG. 14A is an image of the immunofluorescent staining of destroyed myelin sheath at the injured site 7 days post-injury. FIG. 14B is an image showing immunofluorescent staining of myelinated axons and total axons in the cross sections of sciatic nerves 7 days post-injury. Representative images of the cross sections of the sciatic nerves (a, d: healthy nerve; b, c, e, f: crushed nerve). FIG. 14C is a graph showing the ratio of the number of myelinated axon to total axons of crushed sciatic nerves with or without EPO administration. (unpaired t-test, n=3, three animals for each set, p<0.01).\nas §1\nTo work towards the underlying action by which EPO works, it was noticed that the speed of recovery in injured mice was too rapid to be attributable to axonal regeneration. 4-aminopyridine (4-AP) is a potassium channel blocker which enables demyelinated axons to conduct impulses, and thus can be used to identify injuries in which whether there exist anatomically intact but demyelinated axons. Mice receiving a sciatic nerve crush injury, performed poorly in SFI tests 3 days after injury. […] The effect of 4-AP raises the possibility that the benefits of EPO may be due to preservation of myelin and/or improvement of remyelination. […] In untreated mice only 25% of axons (neurofilament+) were associated with myelin (P0+) whereas EPO treatment raised this ratio to 60%."}, "[3]": {"tested_on": "Schwann cell-DRG neuron co-cultures", "experiment": "DRG neuron and Schwann cell myelinating co-cultures, MBP+ myelin quantification", "format": "cell-based", "method": "Primary Schwann Cell Culture.\nDorsal Root Ganglia (DRG) Neuron Cell Culture. DRG neurons were isolated from E18 embryos of Sprague-Dawley rats and 5,000 neurons were seeded in laminin/poly-L-lysine coated 48 well plates. Primary DRG neurons were maintained in Neurobasal media supplemented with B27 containing antioxidants, 50 ng/mL NGF, and 1 μM Ara-C. 1 μM Ara-C treatment was performed three times for two days each time following two days of fresh medium without Ara-C to eliminate fibroblasts. After two weeks, DRG neurons with extensive axons were seeded with Schwann cells for myelination tests (Syed et al., The Journal of Neuroscience 30:6122-6131 (2010)).\nDRG Neuron and Schwann Cell Myelinating Co-cultures. Thirty thousand (30,000) Schwann cells were plated onto the DRG neurons per well. Co-cultures were maintained in differentiation media (DMEM/F12 (1:1), 50 ng/mL NGF, 1× N2 supplement) for a week. Co-cultures were then changed to myelinating medium (MEM, 50 ng/mL NGF, 50 μg/mL ascorbic acid, 10% FBS) for two weeks. Medium was changed every two days (Syed et al., The Journal of Neuroscience 30:6122-6131 (2010)). EPO was added three times at day 6 of differentiating stage, day 1, and day 3 of myelinating stage.\nMyelin Quantification. To quantify the extent of myelination in co-cultures, the total number of MBP+ myelin was counted within the whole culture well and normalized by the total cell number (DAPI+).\nTo determine whether EPO enhances Schwann cell-mediated myelination directly we exposed Schwann cell-DRG neuron co-cultures to various concentrations of EPO (1, 10, 100 unit/mL of EPO). In FIG. 15A, every single short thread-like MBP+ staining cells representing a myelin formed by a single myelinating Schwann cell wrapped around the axon."}, "[4]": {"tested_on": "glutathione S-transferase and gamma-glutamylcysteine synthetase", "details": "100 U/mL EPO, isolated Schwann cell cultures", "description": "(unpaired t-test, n=4, p<0.01) FIG. 15D is a gel image of immunoblotting of glutathione S-transferase and gamma-glutamylcysteine synthetase levels in Schwann cells with 100 U/mL EPO treatment."}, "compressed nerves": {"tested_on": "compressed nerves", "experiment": "Nerve conduction velocity of chronically compressed nerve (sleeve around the nerve)", "format": "in vivo, mice", "details": "4-AP IP single bolus; 7, 9, 12 weeks of compression", "method": "FIGS. 1A, 1B and 1C show graphs of nerve conduction velocity at 7 weeks (FIG. 1A), 9 weeks (FIG. 1B) and 12 weeks (FIG. 1C) of compression and treatment with high dose 4-AP (HD), low dose of 4-AP (LD), and saline (Sal). 4-AP was administered IP in a single dose as a bolus.\nThe concept that 4-AP may have a role in the treatment of compressed nerves emanates from data showing that the conduction velocity of compressed nerves can respond strongly to pharmacologic treatment with this agent. […] Therefore, 4-AP may be used locally or systemically for the treatment of chronic compression injury."}, "[5]": {"details": "intravenous and oral gelatin-based capsule treatments; cited from earlier work"}}}
{"molecule": "EPO: Recombinant human erythropoietin, 30.4-kDa hematopoietic glycoprotein", "values": [{"measurement": "functional improvements in SFI over control groups", "setting": "crushed sciatic nerve [1]; local EPO in fibrin glue vehicle at the site of crush injury, 0.5 U", "result": 15, "unit": "%"}, {"measurement": "SFI function, higher than in untreated animals", "setting": "crushed sciatic nerve [1]; single subcutaneous EPO 5000 U/kg directly after injury, 7 days after injury", "result": 20, "unit": "%"}, {"measurement": "SFI more restored compared to control group", "setting": "crushed sciatic nerve [1]; single subcutaneous EPO 5000 U/kg directly after injury, day 14 after injury", "result": 15, "unit": "%"}, {"measurement": "hind limb / foot appearance", "setting": "crushed sciatic nerve [1]; systemic EPO 5000 U/kg, seven days post-surgery", "result": "close-to-normal appearance"}, {"measurement": "number of axons", "setting": "crushed sciatic nerve [2]", "result": "without significantly altering the number of axons"}, {"measurement": "number of myelinated fibers versus untreated", "setting": "crushed sciatic nerve [2]", "result": "almost tripled"}, {"measurement": "ratio of myelinated (P0+) axons to total axons (neurofilament+)", "setting": "crushed sciatic nerve [2]", "result": 60, "unit": "%"}, {"measurement": "myelin formation under NO stress", "setting": "[3]; 100 μM SNAP with 100 U/mL EPO", "result": "notably recovered myelin formation"}, {"measurement": "total number of MBP+ myelin", "setting": "[3]; 1, 10, 100 unit/mL of EPO", "result": "increased the total number of the MBP+ myelin in co-culture and was found to be dose-dependent"}, {"measurement": "glutathione S-transferase and gamma-glutamylcysteine synthetase levels", "setting": "[4]", "result": "up-regulated"}]}
{"molecule": "Nc1ccncc1", "note": "[4-AP, 4-aminopyridine]", "values": [{"measurement": "conduction velocity of compressed nerve (ratio to contralateral uninjured nerve)", "setting": "compressed nerves", "result": "strong effects of 4-AP administration was seen"}, {"measurement": "sciatic function index (gait)", "setting": "crushed sciatic nerve [1]; 4-AP administered systemically on day 3 or day 5 after crush injury", "result": "large improvement in the function of the animals gait"}, {"measurement": "SFI", "setting": "crushed sciatic nerve [1]; intraperitoneal 100 μg 4-AP, 3 days after injury", "result": "significant transient improvement in SFI"}, {"measurement": "plasma half-life", "setting": "[5]", "result": "3 to 4", "unit": "h"}, {"measurement": "time to maximum plasma concentration", "setting": "[5]", "result": "about 1 hour"}]}
{"molecule": "CC(=O)NC(C(=O)O)C(C)(C)SN=O", "note": "(racemic) [SNAP, S-Nitroso-N-acetyl-DL-penicillamine, reference compound]", "values": [{"measurement": "baseline myelination", "setting": "[3]; 100 μM SNAP", "result": "robust decrease in baseline myelination"}, {"measurement": "cell death", "setting": "[3]; 100 μM SNAP", "result": "significant cell death was not observed"}]}
